# Data: article PMC4470815, “Selective Cytotoxicity of 1,3,4-Thiadiazolium Mesoionic Derivatives on Hepatocarcinoma Cells (HepG2)” (PLoS ONE, 2015)
# Molecular target: T1, ABCG2 (Homo sapiens, UniProt Q9UNQ0)
# T1 sequence (Q9UNQ0 1-655): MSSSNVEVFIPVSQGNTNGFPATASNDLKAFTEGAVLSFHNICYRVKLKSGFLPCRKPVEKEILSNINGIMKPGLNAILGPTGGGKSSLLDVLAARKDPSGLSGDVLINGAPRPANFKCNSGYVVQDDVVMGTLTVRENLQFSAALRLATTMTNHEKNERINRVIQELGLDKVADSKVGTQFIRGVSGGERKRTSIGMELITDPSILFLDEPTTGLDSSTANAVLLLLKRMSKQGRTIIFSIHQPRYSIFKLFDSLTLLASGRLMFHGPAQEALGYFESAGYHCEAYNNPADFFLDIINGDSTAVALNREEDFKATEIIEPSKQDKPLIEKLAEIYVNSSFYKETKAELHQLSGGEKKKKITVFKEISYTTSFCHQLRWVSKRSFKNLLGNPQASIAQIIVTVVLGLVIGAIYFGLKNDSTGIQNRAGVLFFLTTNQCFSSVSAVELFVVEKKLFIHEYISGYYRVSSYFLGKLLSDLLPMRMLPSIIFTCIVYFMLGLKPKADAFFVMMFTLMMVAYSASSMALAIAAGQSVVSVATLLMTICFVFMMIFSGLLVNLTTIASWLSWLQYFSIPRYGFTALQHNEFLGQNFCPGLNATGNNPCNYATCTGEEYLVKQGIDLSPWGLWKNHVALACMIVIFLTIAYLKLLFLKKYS
# Assay: inhibition of mitoxantrone efflux in HEK293ABCG2 cells, flow cytometry
# Type: cell-based
# Settings: read-out: ABCG2 / EC50
row,SMILES,IC50 [µM]
1,"O=[N+]([O-])c1ccc(/C=C/c2sc(Nc3ccccc3)n[n+]2-c2ccccc2)cc1 [MI-D, 4-phenyl-5-(4-nitrocinnamoyl)-1,3,4-thiadiazolium-2-phenylamine chloride]",24.3 ± 9.6
2,Oc1ccc(/C=C/c2sc(Nc3ccccc3)n[n+]2-c2ccccc2)cc1 [MI-J],8.5 ± 4.8
